Reference: patent publication US20170198354A1, “METHODS OF GLUCOCORTICOID THERAPY AND DETERMINING RESPONSIVENESS THEREOF” (YISSUM RESEARCH DEVELOPMENT COMPANY OF THE HEBREW …, priority 2014, published 2017)

How the values were obtained:
Assay type in all cases: cell-based, human
[1] = test system: miR-103; assay: miR-103 level in patient peripheral blood lymphoblasts after PRED (qRT-PCR)
Procedure: Blood and bone marrow (BM) samples of pediatric acute lymphoblastic leukemia (ALL) and chronic lymphoblastic leukemia (CLL) patients were collected from hospitals for testing, and the treatment and clinical status of these patients cross-checked in a blind manner. The outline of the study was to collect blood samples from ALL patients at diagnosis, incubate the blood with or without PRED overnight and then measure miR-103 expression levels. 11 BMs of ALL patients and 6 BMs of normal pediatric donors were analyzed. Furthermore, peripheral blood samples from 8 pediatric ALL patients and 1 CLL patient were collected. The CLL and 5 ALL samples were treated with PRED in vitro while from the additional 3 ALL patients blood was taken at diagnosis and at day 1 following PRED treatment.
The outline of the study was to collect blood samples from acute lymphoblastic leukemia (ALL) patients at diagnosis, incubate the blood with or without PRED overnight and then measure miR-103 expression levels. 11 BMs of ALL patients and 6 BMs of normal pediatric donors were analyzed. Furthermore, peripheral blood samples from 8 pediatric ALL patients and 1 chronic lymphoblastic leukemia (CLL) patient were collected. The CLL and 5 ALL samples were treated with PRED in vitro while from the additional 3 ALL patients blood was taken at diagnosis and at day 1 following PRED treatment. […]

[2] = test system: MOLT-4, CUTLL, BJAB and SUD-136 cells; assay: Apoptosis by PI uptake (flow cytometry), GC-resistant cell lines; settings: for Conferring GC sensitivity (GCIA) by miRNA transfection: BJAB and MOLT-4 transfected with miRNA overexpression plasmids; for Conferring GC sensitivity (GCIA) by miRNA transfection / miR-103-mediated GCIA after re-expression of miR-17˜92a members: Dex 72 hrs; for miR-103-mediated GCIA after re-expression of miR-17˜92a members: miR-103 overexpressing BJAB
Excerpt: (§1) Cell lines models of human T-cell acute lymphocytic leukemia (T-ALL) and Burkitt's lymphoma (BL), including the glucocorticoid (GC) sensitive cells represented by CEM-C7H2 (T-ALL, the sensitive sub-clone of CCRF-CEM), LOUCY (T-ALL) and DAUDI (BL), and the GC resistant cells represented by MOLT-4 (T-ALL), CUTLL (T-ALL), BJAB (BL) and SUD-136 (BL) were used. At least three kinds of cells were used in each type of cancer in order to minimize cell type specific variables. In addition, two types of malignancies were examined, T-ALL to represent leukemia behavior and BL to represent lymphoma behavior. Bone marrow cells were collected from normal donors and ALL patients. All experiments with human cells were approved by an institutional Helsinki committee and the Ministry of Health. Dexamethasone (DEX), RU486, Propidium iodide (PI), puromycin and Tri-reagent were purchased from sigma and TransIT-LT1 from Mirus.
(§2) Cells were treated with 100 nM Dex for 72 hrs. Percent apoptotic cells was determined by PI-uptake as measured in a FACS Calibur flow cytometer (BD).

[3] = test system: BIM; assay: BIM expression (western blot / mRNA RQ)
Procedure: (§3) Total lysate of 10^6 cells was prepared in 50 μl protein sample buffer (PSB) ×1.5. The following antibodies were used for immuno-blotting: anti-β-Catenin and anti-GR (BD Transduction Laboratories); anti-BIM (Calbichem); anti-CDK2, anti-c-Myb, anti-DVL1 and anti-c-Myc (Santa Cruz Biotechnology); anti-cycline E1 (Cell Signaling Technology); and anti-a-Tubulin (Sigma). Immune-blots images are presented by Image Lab 3.0 software. Specific bands were cropped by transferring images to Adobe Photoshop CS5.
(§4) Total RNA was isolated using miRNeasy mini kit (QIAGEN). For Syber green assay, precipitated RNA samples were treated with Poly A Tailing kit (Ambion). c-DNA was prepared by M-MLV reverse transcriptase (Invitrogen). q-PCR amplification of mRNA was operated by Platinum SYBER Green (Invitrogen) with the following primers: FKBP5 5′ […] 3′ and 5′ GTCTCCAATCATCGGCGTT 3′, SGK1 5′ […] 3′ and 5′ […] 3′. For Taqman based PCR, c-DNA was prepared by Taqman MicroRNA Reverse Transcription Kit (Applied Biosystem). q-PCR was performed using TaqMan 2× Universal PCR Master Mix (Applied Biosystem).

[4] = test system: CEM-C7H2, LOUCY and DAUDI cells; assay: Apoptosis by PI uptake (flow cytometry), GC-sensitive cell lines; settings: LOUCY overexpressing miR-103, Dex-treated
Excerpt: as §1, §2

[5] = test system: c-Myc; assay: c-Myc expression (western blot / RQ); settings: miR-103 overexpressing cells; further downregulated following Dex
Procedure: as §3, §4

[6] = test system: miR-17˜92a; assay: miR-17~92a cluster expression (RQ / fold change); settings: resistant BJAB
Procedure: RNA of cell samples was extracted by Tri-reagent. 1 μg of each sample was sequenced on an Illumina Genome Analyzer as described by Son et al, Curr Protoc Microbiol; Chapter 1: Unit 1E 4.
as §4, with “GTCTCCAATCATCGGCGTT” left out

[7] = test system: CEM-C7H2, BJAB, SUD-136, DAUDI and MOLT-4 cells; assay: BRDU incorporation cellular proliferation assay; settings: miR-103 overexpressing cells, no Dex
Excerpt: A BrdU Cell Proliferation Assay kit (Exalpha Biological, Inc) or a BrdU Flow Kit (BD Pharmingen) were used to determine cellular proliferation.

[8] = test system: c-Myb; assay: c-Myb expression (western blot); settings: CEM-C7H2 and MOLT-4 T-ALL cells
Procedure: as §3

[9] = test system: GR; assay: GR expression (western blot / mRNA RQ)
Procedure: as §3, §4

[10] = test system: BJAB cells; assay: Total cell number / viability by flow cytometry; settings: miR-103 overexpressing BJAB
Procedure: FIGS. 6A-E: miR-103 inhibits cellular proliferation. (A) Relative Quantification of miR-103 in BM cells of […]. (B) CEM-C7H2, BJAB and miR-103 overexpressing BJAB cells were treated with Dex (24 hrs), labeled with BRDU (1 hr), fixed and analyzed by flow cytometry. (C) miR-103 overexpressing BJAB, SUD-136, DAUDI and MOLT-4 cells were treated with Dex for 72 hrs. Cellular proliferation was measured by BRDU staining. (D) miR-103 overexpressing BJAB cells were treated with Dex and/or RU486 for 72 hrs. Cell viability was determined by flow cytometry. (E) miR-103 overexpression or sponged cells were treated with Dex and then subjected to western blot analysis using anti Cyclin E1 and CDK2 antibodies. C=Untreated, D=Dex-treated.

[11] = test system: DVL1 and β-Catenin; assay: DVL1 and β-Catenin expression (western blot)
Procedure: as §3

[12] = test system: cycline E1 and CDK2; assay: Cycline E1 and CDK2 expression (western blot / RQ); settings: miR-103 overexpressing cells
Procedure: as §3, §4

[13] = test system: PANK3-GRE; assay: Chromatin immunoprecipitation of PANK3-GRE; settings: CEM-C7H2
Procedure: The EpiTech ChIP OneDay kit (Qiagen) was employed. IP antibodies used were: Rabbit-IgG (Qiagen), anti-GR (cell signaling) and anti-H3K4me1 (abcam). qRT-PCR was performed by syber green enzyme with the following primers: PANK3-GRE, GAPDH positive control and MYOD1 negative control (Qiagen). GR-GRE primers were planned as follow: Fw-5′ […] 3′ and 5′ […] 3′. % Enrichment was calculated according to the formula: 2̂(CT Mean(Input)−CT Mean of (Interested fraction))*100.

[14] = test system: miRNAs; assay: Deep sequencing of small RNAs; settings: CEM-C7H2, Dex 24 hrs
Procedure: RNA of cell samples was extracted by Tri-reagent. 1 μg of each sample was sequenced on an Illumina Genome Analyzer as described by Son et al, Curr Protoc Microbiol; Chapter 1: Unit 1E 4. Data analysis was performed by a miRNAkey application Ronen et al., Bioinformatics; 26(20):2615-2616.

Compound: C[C@]12C=CC(=O)C=C1CC[C@@H]1[C@@H]2C(=O)C[C@@]2(C)[C@H]1CC[C@]2(O)C(=O)CO [PRED, prednisone]
- miR-103 level in peripheral malignant lymphoblasts after PRED ([1]; PRED good responders (PGR) ALL patients): upregulated
- miR-103 level in peripheral malignant lymphoblasts after PRED ([1]; prednisone poor response (PPR) ALL patients): downregulated

Compound: miR-30d: human miRNA, SEQ ID NO: 3, overexpression plasmid (UGUAAACAUCCCCGACUGGAAG; listed as Homo sapiens)
- Conferring GC sensitivity (GCIA) by miRNA transfection [2]: sensitized

Compound: miR-15b: human miRNA, SEQ ID NO: 4, overexpression plasmid (UAGCAGCACAUCAUGGUUUACA; listed as Homo sapiens)
- Conferring GC sensitivity (GCIA) by miRNA transfection [2]: sensitized

Compound: miR-20a: human miRNA of miR-17˜92a, SEQ ID NO: 14, re-expressed from plasmid (UAAAGUGCUUAUAGUGCAGGUAG; listed as Homo sapiens) [reference compound]
- miR-103-mediated GCIA after re-expression of miR-17˜92a members [2]: counteracted the miR-103-mediated GCIA
- BIM level after restoring miR-20a ([3]; miR-103 overexpressing BJAB transfected with miR-20a): re-suppressed

Compound: miR-30e: human miRNA, SEQ ID NO: 2, overexpression plasmid (UGUAAACAUCCUUGACUGGAAG; listed as Homo sapiens)
- Conferring GC sensitivity (GCIA) by miRNA transfection [2]: sensitized

Compound: miR-103: human miRNA, SEQ ID NO: 1 AGCAGCAUUGUACAGGGCUAUGA, expressed from overexpression plasmid (Table 3) (listed as Homo sapiens)
- Conferring GC sensitivity (GCIA) by miRNA transfection [2]: particularly effective in conferring GC sensitivity
- Apoptosis of miR-103 overexpressing resistant cells with Dex ([2]; MOLT-4, CUTLL, BJAB, SUD136 overexpressing miR-103, Dex-treated): underwent significant apoptosis
- Apoptosis on miR-103 overexpression without Dex ([2]; untreated cells): only a minor effect on apoptosis
- GC induced apoptosis (GCIA) in miR-103 overexpressing cells [4]: became hyper-sensitive to GCIA
- c-Myc expression on miR-103 overexpression [5]: reduced
- miR-17˜92a expression on miR-103 overexpression [6]: reduced expression
- Cell proliferation (BRDU) by miR-103 itself [7]: significantly reduced cell proliferation
- c-Myb expression on miR-103 overexpression [8]: downregulates
- BIM expression on miR-103 overexpression ([3]; protein and mRNA, augmented by Dex): induced BIM upregulation both at the protein and mRNA levels
- GR protein and mRNA on miR-103 overexpression ([9]; miR-103 overexpressing cells): both GR protein and mRNA upregulation
- Total cell number in the culture [10]: reduced the total cell number
- DVL1 and β-Catenin on miR-103 overexpression ([11]; Burkitt's lymphoma cells): downregulated
- DVL1 expression on miR-103 overexpression ([11]; CEM-C7H2): even upregulated
- β-Catenin level on miR-103 overexpression ([11]; CEM-C7H2): unaffected
- β-Catenin level on miR-103 overexpression ([11]; MOLT4): even upregulated
- Cycline E1 and CDK2 expression on miR-103 overexpression [12]: downregulated

Compound: C[C@@H]1C[C@H]2[C@@H]3CCC4=CC(=O)C=C[C@]4(C)[C@@]3(F)[C@@H](O)C[C@]2(C)[C@@]1(O)C(=O)CO [Dex, Dexamethasone]
- PANK3-GRE enrichment, anti-GR antibody, Dex-treated compared with untreated [13]: approximately 5%
- Number of miRNAs most significantly modulated by Dex [14]: 22

Compound: miR-16: human miRNA, SEQ ID NO: 5, overexpression plasmid (UAGCAGCACGUAAAUAUUGGCG; listed as Homo sapiens)
- Conferring GC sensitivity (GCIA) by miRNA transfection [2]: sensitized

Compound: miR-18a: human miRNA of miR-17˜92a, SEQ ID NO: 19, re-expressed from plasmid (UAAGGUGCAUCUAGUGCAGAUAG; listed as Homo sapiens) [reference compound]
- miR-103-mediated GCIA after re-expression of miR-17˜92a members [2]: counteracted the miR-103-mediated GCIA
- miR-103-mediated GR upregulation after restoring miR-18a ([9]; miR-103 transfected cells transfected with miR-18a): inhibition of the GR upregulation mediated by miR-103
